# According to patent publication US9114180B2, “Malodor neutralizing compositions containing acids and alicyclic ketones” (Robertet, Inc., priority 2012, dated 2015):
# Values joined by “and” are separate entries in the source; they are usually repeats but may differ in a detail not shown here. Equal values may be shown once.
# Experiments:
# [1] = Malodor evaluation panel, cat urine on cotton swatches; set-up: key to (Score of Ketone) − (Score of Combination) / (score of citric acid) − (score of combination): difference of malodor scores, 1 = very weak to 7 = very strong (control); conditions: for (Score of Ketone) − (Score of Combination) / (score of citric acid) − (score of combination): cat urine malodor, combination with citric acid; for Score of combination 1% + 1% / Score alone 1% (alicyclic ketone): remaining cat urine malodor; for Score of combination 1% + 1%: scale 1-7, ketone 1% + citric acid 1% in spray, average of 14; for Score alone 1% (alicyclic ketone): scale 1 very weak to 7 (control, very strong), ketone 1% in spray, average of 14 panelists
# Source text: The source of the malodor tested was cat urine. […] A period of three minutes was allowed for the urine to be absorbed by the fabric. Onto each swatch, 3.0 grams of a composition was sprayed. As a control, 3.0 grams of water was sprayed on certain swatches. Each swatch was placed in the middle of a two by two foot (61×61 cm) cubicle and all doors were closed. Actual testing began after thirty minutes. Each member of the panel was asked to sniff the malodor control first and was notified that the control has a rating of 7—indicating very strong malodor. They were then asked to proceed to sniff the other samples and provide a rating for malodor remaining. Thus, the remaining malodor was evaluated on a sliding scale, with 1 being very weak malodor. The panelists were instructed to ignore any fragrance that they may detect and rate only the malodor. […] The fabric spray base was an aqueous solution containing 75% distilled water, 20% ethanol, and 5% of non-ionic surfactant. […] The scores reported are therefore the average of 14 replications. The ionones and irones tested were racemic mixtures of their respective α, β, and γ-isomers. The table sets forth what is believed to be the dominant isomer. Apparent duplications (Tests 5, 6 and 8; Tests 10 and 11) are tests on substances obtained from different sources, and have different mixtures of isomers. […] The ionones tested were mixtures of α, β and γ isomers; the table sets for the dominant isomer.
# [2] = Malodor evaluation panel, cigarette smoke on cotton swatches; conditions: for (Score of Acid) − (Score of Combination) / (Score of Ketone) − (Score of Combination): cigarette smoke malodor; for Score of Ketone Alone @ 1%: average of 14, Table 3
# Protocol: The source of the malodor tested was cigarette smoke. Swatches of 100% untreated cotton fabric were cut into 15 cm (6-inch) squares and were placed in large plastic containers. Two cigarettes were smoked up inside the plastic containers containing the swatches with closed lids. The environment inside each closed container was allowed to equilibrate for 24 hours. Onto each swatch, 3.0 grams of a composition was sprayed. As a control, 3.0 grams of water was sprayed on certain swatches. Each swatch was placed in the middle of a two by two foot (61×61 cm) cubicle and all doors were closed. Actual testing began after thirty minutes. Each member of the panel was asked to sniff the malodor control first and was notified that the control has a rating of 7—indicating very strong malodor. They were then asked to proceed to sniff the other samples and provide a rating for malodor remaining. Thus, the remaining malodor was evaluated on a sliding scale, with 1 being very weak malodor. The panelists were instructed to ignore any fragrance that they may detect and rate only the malodor. […] Neodol 91-8 and the fabric spray base were the same as those described in Example 1.
# [3] = Malodor evaluation panel, synthetic bathroom malodor on cotton swatches; conditions: for Score of Ketone Alone @ 1%: average of 14; for Score of Combination @ 1% + 1%: ketone 1% + undecylenic acid 1%; for (Score of Acid) − (Score of Combination) / (Score of Ketone) − (Score of Combination): synthetic bathroom malodor; for (Score of Acid) − (Score of Combination): acid = undecylenic acid; for (Score of Ketone) − (Score of Combination): combination with undecylenic acid
# [4] = as above
# Source text: A malodor evaluation panel of 14 persons was assembled and asked to evaluate the odor neutralizing effectiveness of citric acid and dihydro-β-ionone, either alone or in combination. The source of the malodor tested was synthetic bathroom malodor.
# Swatches of 100% untreated cotton fabric were cut into 15 cm (6-inch) squares and were placed on weighing boats. 0.5 grams of synthetic bathroom malodor was pipetted onto each of the swatches. A period of three minutes was allowed for the malodor to be absorbed by the fabric.
# Onto each swatch, 3.0 grams of a composition was sprayed. As a control, 3.0 grams of water was sprayed on certain swatches.
# Each swatch was placed in the middle of a two by two foot (61×61 cm) cubicle and all doors were closed. Actual testing began after thirty minutes.
# They were then asked to proceed to sniff the other samples and provide a rating for malodor remaining. Thus, the remaining malodor was evaluated on a sliding scale, with 1 being very weak malodor. The panelists were instructed to ignore any fragrance that they may detect and rate only the malodor.
# For the spray compositions containing citric acid or dihydro-β-ionone alone, each spray composition (having a total weight of 20.00 g) consisted of:
# For the spray composition containing both citric acid and dihydro-β-ionone, the spray composition (having a total weight of 20.00 g) consisted of:
# Neodol 91-8 and the fabric spray base were the same as those described in Example 1.
# Each panelist tested citric acid, dihydro-β-ionone, and their combinations. The scores reported are therefore the average of 14 replications.
# The results are summarized in Table 6, in which the scores reported are the average of 14 replications.
# [5] = remaining cigarette smoke malodor, scale 1-7
# [6] = remaining cigarette smoke malodor, scale 1-7, ketone 1% + citric acid 1%
# [7] = remaining synthetic bathroom malodor, scale 1-7, Table 6
# [8] = remaining synthetic bathroom malodor, scale 1-7
Compound,(Score of Ketone) − (Score of Combination) [1],(score of citric acid) − (score of combination) [1],Score of combination 1% + 1% [1],Score alone 1% (alicyclic ketone) [1],"Score of Ketone Alone @ 1% [3, 7]","Score of Combination @ 1% + 1% [3, 8]",(Score of Acid) − (Score of Combination) [3],(Score of Ketone) − (Score of Combination) [3],also measured
CCC(C)(C)C1CCC(=O)CC1 [4-tert-pentylcyclohexanone],0.60,0.50,2.90,3.50,,,,,"(Score of Acid) − (Score of Combination) ([2]; acid = citric acid): 0.80; (Score of Ketone) − (Score of Combination) ([2]; combination with citric acid): 0.30; Score of Ketone Alone @ 1% [2, 5]: 3.40; Score of Combination @ 1% + 1% [2, 6]: 3.10"
"CCC(=O)C=CC1C(C)=CCCC1(C)C (centres unmarked) [1-(2,6,6-trimethyl-2-cyclohexen-1-yl)pent-1-en-3-one]",,,,,2.80,2.70,2.50,0.10,
C=CCCCCCCCCC(=O)O [undecylenic acid],,,,,,,,,"Score of Undecylenic Acid @ 1% ([2]; remaining cigarette smoke malodor, scale 1-7, undecylenic acid alone): 4.20; Score of Undecylenic Acid @ 1% ([3]; remaining synthetic bathroom malodor, scale 1-7, undecylenic acid alone, in the test of that line): 5.00 and 4.30 and 5.10 and 5.20"
citric acid,,,,,,,,,"Score of Citric Acid @ 1% ([2]; remaining cigarette smoke malodor, scale 1-7, citric acid alone, in the test of that line): 3.90 and 4.80; Score of Citric Acid @ 1% ([4]; remaining synthetic bathroom malodor, scale 1-7, citric acid alone): 5.00"
CCC(=O)/C=C/C1=C(C)CCCC1(C)C [methyl β-ionone],0.10,0.90,3.40,3.50,,,,,
CC(=O)/C=C/C1=C(C)CCCC1(C)C [β-ionone],0.70,1.00,3.10,3.80,4.60,3.30,1.80,1.30,
CC(=O)CCC1=C(C)CCCC1(C)C [dihydro-β-ionone],1.40,0.80,2.50,3.90,,,,,"Score of Combination @ 1% + 1% ([4]; remaining synthetic bathroom malodor, scale 1-7, ketone 1% + citric acid 1%): 3.60; (Score of Acid) − (Score of Combination) ([4]; synthetic bathroom malodor, acid = citric acid): 1.40; (Score of Ketone) − (Score of Combination) ([4]; synthetic bathroom malodor, combination with citric acid): 0.10; Score of Ketone Alone @ 1% ([3]; remaining synthetic bathroom malodor, scale 1-7, Table 5): 3.70"
CC(C)(C)C1CCCCC1=O (centres unmarked) [2-tert-butylcyclohexanone],,,,,4.50,4.10,0.20,0.40,
CC(=O)/C=C/C1C(C)=CCC(C)C1(C)C (stereo not drawn) [α-irone],0.20,0.00,3.70,3.90,,,,,
methyl α-ionone,,,,,3.80,3.40,1.60,0.40,"(Score of Acid) − (Score of Combination) ([2]; acid = citric acid): 1.10; (Score of Acid) − (Score of Combination) ([2]; acid = undecylenic acid): 1.40; (Score of Ketone) − (Score of Combination) ([2]; combination with citric acid): 0.50; (Score of Ketone) − (Score of Combination) ([2]; combination with undecylenic acid): 0.10; Score of Ketone Alone @ 1% [2, 5]: 4.20; Score of Combination @ 1% + 1% [2, 6]: 3.70; Score of Combination @ 1% + 1% ([2]; remaining cigarette smoke malodor, scale 1-7, ketone 1% + undecylenic acid 1%): 2.80"
CC(=O)/C=C/C1C(C)=CCCC1(C)C (stereo not drawn) [α-ionone],1.10,0.10,3.10,4.20,,,,,
